Where two headings read alike, the source gives them in different places.
Legend:
Type in all cases: cell-based
[1] = target: T1, human Dopamine D2L receptor (Homo sapiens, UniProt P14416); test: cAMP HTRF functional assay (agonist/antagonist)
T1 construct: expressed in transfected cells; host or cells: CHO-K1
Procedure: (§1) Functional profiling of agonist and antagonist activities of 8′-OH DHE on human Adrenergic α1D, Dopamine D2L, and Serotonin 5-HT1B, 5-HT1D, 5-HT1F, 5-HT3, 5-HT4e and 5-HT5A receptors (compared against the parent (DHE) molecule) was carried out as follows.
(§2) The SPA 35S-GTPγS tests were conducted with Euroscreen membrane preparations […]. The HTRF assays were conducted with recombinant cell lines. The receptor accession numbers, cellular background and reference compounds are as reported below in Table 10.
(2) DHE and 8′-OH DHE were tested for agonist and antagonist activity at the human Dopamine D2L receptor using cAMP HTRF assay (in triplicate) at the following nanomolar concentrations: […]
(§3) Agonist activity of the test compounds was expressed as a percentage of the activity of the reference agonist at its EC100 concentration. Antagonist activity of the test compounds was expressed as a percentage of the inhibition of the reference agonist activity at its EC80 concentration. Dose-response data from the test compounds were analyzed with XLfit (IDBS) software using nonlinear regression applied to a sigmoidal dose-response model and the following equation: […]

[2] = target: T2, human Serotonin 5-HT1F receptor (Homo sapiens, UniProt P30939); test: cAMP HTRF functional assay (agonist/antagonist)
T2 construct: expressed in transfected cells; host or cells: CHO-K1
Procedure: as §1, §2
(4) DHE and 8′-OH DHE were tested for agonist and antagonist activity at the human Serotonin 5-HT1F and Serotonin 5-HT4E receptors using cAMP HTRF assay (in triplicate) at the following nanomolar concentrations: […]
as §3

[3] = target: T3, human Adrenergic α1D receptor (Homo sapiens, UniProt P25100); test: Aequorin functional assay (agonist/antagonist)
T3 construct: expressed in transfected cells; host or cells: CHO-K1 or HEK-293, coexpressing mitochondrial apoaequorin
Procedure: as §1, §2
(§4) (1) DHE and 8′-OH DHE were tested for agonist and antagonist activity at the human Adrenergic α1D, Serotonin 5-HT3 and Serotonin 5-HT5A receptors using aequorin assay (in triplicate) at the following nanomolar concentrations:
(§5) (5) DHE was tested for agonist and antagonist activity at the human Adrenergic α1D, Serotonin 5-HT3 and Serotonin 5-HT5A receptors using aequorin assay (in triplicate), and at the human Dopamine D2L, Serotonin 5-HT1F and Serotonin 5-HT4E receptors using cAMP HTRF assay (in triplicate) at the following nanomolar concentrations:
(§6) (6) 8′-OH DHE was tested for agonist and antagonist activity at the human Adrenergic α1D, Serotonin 5-HT3 and Serotonin 5-HT5A receptors using aequorin assay (in triplicate), at the human Dopamine D2L, Serotonin 5-HT1F and Serotonin 5-HT4E receptors using cAMP HTRF assay (in triplicate), and at the human Serotonin 5-HT1B and Serotonin 5-HT1D receptors using GTPγS assay (in triplicate) at the following nanomolar concentrations:
(§7) CHO-K1 or HEK-293 cells coexpressing mitochondrial apoaequorin and recombinant human […], or recombinant human Serotonin 5-HT3 receptor, or recombinant human Serotonin 5-HT5A receptor grown to mid-log phase in culture media without antibiotics were detached with PBS-EDTA, centrifuged and resuspended in assay buffer (DMEMHAM's F12 with HEPES, without phenol red+0.1% BSA protease free) at a concentration of 1×10^6 cells/mL. Cells were incubated at RT for at least 4 hours with coelenterazine h. The reference agonist was tested to evaluate performance of the assay on each day of the test and to determine EC50. For agonist testing, 50 μL of cell suspension was mixed with 50 μL of test compound or reference agonist in a 96-well plate. The resulting emission of light was recorded using Hamamatsu Functional Drug Screening System 6000 (FDSS 6000 luminometer). For antagonist testing, 100 μL of the reference agonist at its EC80 was injected on the mix of cells and test compounds, following an incubation of 15 minutes after the first injection. The resulting emission of light was recorded using the FDSS 6000 luminometer. To standardize the emission of recorded light (determination of the ‘100% signal’) across plates and across different experiments, some of the wells contained 100 μM digitonin or a saturating concentration of ATP (20 μM).
as §3

[4] = target: T4, human Serotonin 5-HT3 receptor (Homo sapiens, UniProt P46098); test: Aequorin functional assay (agonist/antagonist)
T4 construct: expressed in transfected cells; host or cells: CHO-K1 or HEK-293, coexpressing mitochondrial apoaequorin
Procedure: as §1, §2, §4, §5, §6, §7, §3

[5] = target: T5, human Serotonin 5-HT5A receptor (Homo sapiens, UniProt P47898); test: Aequorin functional assay (agonist/antagonist)
T5 construct: expressed in transfected cells; host or cells: CHO-K1 or HEK-293, coexpressing mitochondrial apoaequorin
Procedure: as §1, §2, §4, §5, §6, §7, §3

T2 sequence (P30939 whole entry): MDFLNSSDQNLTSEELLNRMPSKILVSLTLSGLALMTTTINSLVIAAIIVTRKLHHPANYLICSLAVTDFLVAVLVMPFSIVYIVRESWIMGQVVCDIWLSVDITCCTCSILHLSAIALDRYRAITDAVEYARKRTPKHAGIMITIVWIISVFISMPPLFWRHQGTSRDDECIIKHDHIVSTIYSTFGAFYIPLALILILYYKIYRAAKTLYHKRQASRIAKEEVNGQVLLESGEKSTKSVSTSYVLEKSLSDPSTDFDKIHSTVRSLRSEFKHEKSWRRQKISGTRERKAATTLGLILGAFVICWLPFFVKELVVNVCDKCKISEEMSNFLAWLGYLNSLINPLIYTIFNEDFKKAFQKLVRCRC
T5 sequence (P47898 whole entry): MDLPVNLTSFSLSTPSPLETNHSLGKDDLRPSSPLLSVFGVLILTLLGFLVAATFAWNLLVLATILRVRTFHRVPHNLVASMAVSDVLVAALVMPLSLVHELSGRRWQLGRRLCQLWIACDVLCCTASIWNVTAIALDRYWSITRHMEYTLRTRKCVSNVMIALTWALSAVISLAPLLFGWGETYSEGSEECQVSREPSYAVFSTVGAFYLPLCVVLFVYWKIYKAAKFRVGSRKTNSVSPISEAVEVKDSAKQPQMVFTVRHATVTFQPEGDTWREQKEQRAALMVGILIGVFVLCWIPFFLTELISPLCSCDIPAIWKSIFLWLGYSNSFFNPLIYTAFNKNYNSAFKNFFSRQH
T3 sequence (P25100 whole entry): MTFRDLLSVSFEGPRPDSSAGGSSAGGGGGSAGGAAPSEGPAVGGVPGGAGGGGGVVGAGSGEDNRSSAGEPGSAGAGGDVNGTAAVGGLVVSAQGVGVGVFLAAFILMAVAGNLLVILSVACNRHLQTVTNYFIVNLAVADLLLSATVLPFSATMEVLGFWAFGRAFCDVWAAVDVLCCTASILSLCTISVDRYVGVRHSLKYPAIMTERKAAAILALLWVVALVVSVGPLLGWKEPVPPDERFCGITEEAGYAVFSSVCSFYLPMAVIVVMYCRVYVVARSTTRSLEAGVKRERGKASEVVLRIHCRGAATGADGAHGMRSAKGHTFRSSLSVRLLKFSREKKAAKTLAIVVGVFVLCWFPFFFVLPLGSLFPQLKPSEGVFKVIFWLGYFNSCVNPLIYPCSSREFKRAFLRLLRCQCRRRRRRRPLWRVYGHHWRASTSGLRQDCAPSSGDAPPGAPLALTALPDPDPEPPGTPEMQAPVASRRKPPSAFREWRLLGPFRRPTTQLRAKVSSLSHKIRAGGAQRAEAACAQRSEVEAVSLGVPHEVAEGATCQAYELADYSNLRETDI
T4 sequence (P46098 24-478): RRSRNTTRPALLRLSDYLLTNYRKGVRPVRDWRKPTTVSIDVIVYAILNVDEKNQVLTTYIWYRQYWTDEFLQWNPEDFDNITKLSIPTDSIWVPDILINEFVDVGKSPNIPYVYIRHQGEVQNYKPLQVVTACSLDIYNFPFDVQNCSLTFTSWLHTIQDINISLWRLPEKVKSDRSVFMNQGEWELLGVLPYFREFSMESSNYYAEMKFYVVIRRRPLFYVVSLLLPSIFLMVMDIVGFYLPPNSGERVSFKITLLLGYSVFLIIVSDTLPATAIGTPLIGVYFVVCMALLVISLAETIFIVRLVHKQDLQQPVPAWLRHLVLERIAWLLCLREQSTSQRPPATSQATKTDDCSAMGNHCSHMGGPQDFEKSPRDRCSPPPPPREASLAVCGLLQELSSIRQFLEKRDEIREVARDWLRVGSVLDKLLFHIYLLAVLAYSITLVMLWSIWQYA
T1 sequence (P14416 whole entry): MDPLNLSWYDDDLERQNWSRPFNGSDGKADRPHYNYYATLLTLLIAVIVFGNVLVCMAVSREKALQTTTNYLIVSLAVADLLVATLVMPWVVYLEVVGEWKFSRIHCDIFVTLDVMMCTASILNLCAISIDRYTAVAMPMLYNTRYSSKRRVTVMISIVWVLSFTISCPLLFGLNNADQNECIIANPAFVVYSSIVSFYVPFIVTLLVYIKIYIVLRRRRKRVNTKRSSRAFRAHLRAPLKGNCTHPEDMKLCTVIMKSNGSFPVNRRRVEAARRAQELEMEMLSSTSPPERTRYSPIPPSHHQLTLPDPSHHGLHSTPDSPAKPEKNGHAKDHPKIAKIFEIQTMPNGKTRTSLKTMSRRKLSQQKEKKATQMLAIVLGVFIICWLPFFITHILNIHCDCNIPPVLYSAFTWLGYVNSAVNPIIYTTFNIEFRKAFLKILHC

SMILES | EC50 ([1]; Dopamine D2L, cAMP HTRF, read-out: Functional activity (agonist)) [nM] | Agonist and antagonist activity [2] | IC50 ([3]; Adrenergic α1D, aequorin, vs reference agonist at EC80, read-out: Functional activity (antagonist)) [nM] | IC50 ([4]; Serotonin 5-HT3, aequorin, read-out: Functional activity (antagonist)) [nM] | IC50 ([5]; Serotonin 5-HT5A, aequorin, read-out: Functional activity (antagonist)) [nM] | EC50 [1] [nM] | IC50 [3] [nM] | IC50 [4] [nM] | IC50 [5] [nM]
CN1C[C@H](C(=O)N[C@]2(C)O[C@@]3(O)[C@@H]4CCC(O)N4C(=O)[C@H](Cc4ccccc4)N3C2=O)C[C@@H]2c3cccc4[nH]cc(c34)C[C@H]21 (stereo partly shown) [8′-OH DHE, 8′-Hydroxy-Dihydroergotamine] | 1.61 | inactive | 0.61 | > 10000 | 73.3 | – | – | – | –
CN1C[C@H](C(=O)N[C@]2(C)O[C@@]3(O)[C@@H]4CCCN4C(=O)[C@H](Cc4ccccc4)N3C2=O)C[C@@H]2c3cccc4[nH]cc(c34)C[C@H]21 [DHE, Dihydroergotamine] | – | inactive | – | – | – | 0.835 | 1.32 | 3850 | 48.8

Source: patent US20150306096A1, “8'-HYDROXY-DIHYDROERGOTAMINE COMPOUNDS AND COMPOSITIONS” (MAP Pharmaceuticals, Inc., priority 2012, published 2015)
